The results in this text go back to patent US20120122965A1, “COMPOSITIONS FOR SKIN PROTECTION AND IMPROVEMENT OF SKIN DISEASES CONTAINING THE DIBENZO-P-DIOXINE DERIVATIVES” (priority 2007, published 2012).

One data set relates to elastase. In words: Inhibition of elastase. It counts as biochemical. The following applies: 50 μg/ml, 10 nM elastase, 25° C., 10 min. The protocol: Catechin, rasveratrol, isoflavone, lactokine were used for positive controls. […] The cell treated with the same amount of solvent was used as a negative control. The inhibitory effects of each sample on elastase were determined by following Equation. The results are described in Table 3. {1−(E/E0)}×100 [Equation] E: The absorbance of test group or positive control E0: The absorbance of negative control

The test system of data set [1] is B-16 cells (mouse melanoma, ATCC CRL 6323). In words: Inhibition of melanin synthesis. The following applies: 50 μg/ml, 3 days, vs solvent control; for inhibition at 50 µg/mL: Mus musculus, B16, 72 h, read-out: Inhibitory effect on melanin synthesis (%). It is filed as cell-based. The protocol: Catechin, rasveratrol, isoflavone, kojic acid, ascorbic acid, and Moriradicis cortex extracts were used as positive controls.
The B-16 cells (mouse melanoma, ATCC CRL 6323) were maintained in the DMEM medium supplemented 4.5 g/E of glucose, 10% serum, and 1% antibiotic at 37° C. for 24 hours. After the cell was incubated with 0.05% trypsin containing 0.02% EDTA, the cell was plated and incubated for 48 hours. The cells were treated with 50 μg/ml of compositions 1 to 18, or positive controls and incubated at 37° C. for 3 days. The cells were then added with 1 me of lysis buffer (phosphate buffer solution, 0.02% EDTA, 0.05% trypsin) and centrifuged for 5 min After the cells were treated with 5% trichloro acetate (TCA), the farmed melanin was separated and dissolved in 1N NaOH. The absorbance was measured at 475 nm using spectrophotometer. Concentration of melanin was determined by the standard curve of synthetic melanin (SIGMA CO. USA). The cell treated with the same amount of solvent was used as a negative control. The inhibitory effects of each composition on melanin synthesis were determined by following Equation.
{1−(M/M0)}×100 [Equation]
M: amount of melanin of test group or positive controls
M0: amount of melanin of negative control

The test system of data set [2] is NB1RGB cells (normal human fibroblast cell line from skin). Particulars: concentration that reaches 50% of apoptosis, 1 hour incubation. The protocol:
(§1) The cytotoxicity of the compositions to the normal skin cell was assessed using the NHEK (F) cells (normal human epidermal keratinocytes of neonatal foreskin cell) and the NB1RGB cells (normal human fibroblast cell line from skin). NHEK (F) and NB1RGB cells, which are main components of the epidermis and Bemis in normal human skin, produce collagen and elastin and provide skin elasticity.
(§2) The mixture of PMS/WST-1 (1-methoxy-5-methylphenazinium methyl sulfate/2-(4-indophenyl)-3-(4-nitrophenyl)-5-(2,4-disulfo phenyl)-2H-tetrazolium monosodium salt) was added to the medium and incubated for 1 hour to generate soluble formosan, and then the absorbance was measured at 415 nm using spectrophotometer. The cells treated with solvent without the compositions were used as a negative control, whereas the cells treated with 1% (w/v) SDS solution were used as a positive control (100% cell apoptosis).
(§3) apoptosis(%)=(A0−A/A0−As)×100 [Equation]
(§4) A0=absorbance of the cell that was not treated with the composition
(§5) A=absorbance of the cell that was treated with the composition […]
(§6) As=absorbance of the cell that was treated with 1% (w/v) SDS (positive control group)

Data set [3] deals with NHEK (F) cells (normal human epidermal keratinocytes of neonatal foreskin cell). The following applies: concentration that reaches 50% of apoptosis, 1 hour incubation. The protocol: as §1, §2, §3, §4, §5, §6
The subject of data set [4] is rat basophilic leukemia cell (RBL-2H3). In words: Inhibition on histamine release (DNP-BSA stimulated). It counts as cell-based. The following applies: 50 μg/ml, RBL-2H3 cells, vs negative control. The protocol:
In order to assess the anti-inflammation and anti-allergic activities of the compositions in the present invention, the inhibitory effects of the compositions on histamine synthesis, which closely related with inflammation including allergy, were investigated. The inhibitory effects of the compositions on histamine synthesis were assessed using the rat basophilic leukemia cell (RBL-2H3) according to the Kawasaki's method. After the cell (1×10^5 cells/well) was cultured in RPMI 1640 medium supplemented with 2% FBS (fetal bovine serum) and rat anti-DNP (dinitrophenol) IgE at 37° C. for 120 min, the cell was washed with the HPEPS buffer to remove the residual IgE. The cells was incubated in either absence (negative control) or presence (test group) of the com[…]. for 10 min. The cell was then treated with DNP-BSA (Dinitrophenol-conjugated Bovine serum albumin), as a histamine release antigen, for 1 hour at 37° C. After the reaction was stopped by adding the HEPES buffer solution, the supernatant was collected and treated with 20 μl of the perchloric acid and centrifuged. The histamine release in the supernatant was measured using the HPLC. The % inhibitions on histamine release of test group were calculated by following Equation compared with negative control. […] H: histamine release of test group H0: histamine release of negative control

Data set [5] relates to TG (triacyl glycerol) synthesis. In words: Inhibition of TG synthesis in hamster auricles. It counts as in vivo. The following applies: hamster auricles, 200 μl of 10% solution topically once a day for 14 days; control group = 100. The protocol: The prevention and treatment effects of the compositions on the acne were assessed through the inhibition of TG (triacyl glycerol) synthesis and sebocyte proliferation in hamster model.
The inhibitory effects of the composition 6 and 14 on TG synthesis were assessed as compared with catechin (positive control group). 5 week-old male hamster was divided into three groups (negative control group, test group, positive control group) and housed 10 animals to a cage after the acclimatization for 2 weeks. Animal rooms were maintained at 25±1° C. and 55% of humidity with a 12-hr light/dark cycle. The animals were freely accessed to diet and water throughout the study. The auricles of hamster were topically treated once a day for 14 days with 200 μl of 10% of the composition 6, 14 or catechin. The solvent for topical application was composed of a mixture of ethanol and glycerol (95:5, v/v). The animals in negative control group were treated with the same volume of vehicle. The auricles were separated from the body and the sebum generated on the skin surface was extracted with acetone. The amount of TG in skin surface was calculated from the sebum extracts. Sebocyte were suspended into solution from the auricle tissues using sonicator, and then amount of intercellar TG was determined by automatic thin-layer chromatography using triolate as a standard. The relative TG concentrations of each sample were calculated from comparison with negative control.

On to `Oc1ccc(/C=C/c2cc(O)cc(O)c2)cc1` [rasveratrole, reference compound], for which, in the data set with elastase, the “Inhibition of Elastase (%)” value was 48.3%. The “Inhibitory effect on melanin synthesis (%)” value (shortened to “Inhibitory effect … (%)”) in data set [1] amounted to 40.9%.
Consider `Oc1cc(O)cc(Oc2c(O)cc(O)c3c2Oc2c(O)cc(Oc4c(O)cc(Oc5c(O)cc(O)c6c5Oc5c(O)cc(O)cc5O6)cc4O)cc2O3)c1` [composition 2], for which the “Inhibition of Elastase (%)” value in the data set on elastase was 86.4%. In data set [2], the “LD50 (μM) NB1RGB cell” value is 150.3 µM. Moreover, the “LD50 (μM) NHEK (F) cell” value in data set [3] stood at 48.9 µM. Besides, the “% Inhibition on histamine release” value in data set [4] worked out at 70.3%. Besides, the “Inhibitory effect … (%)” value in data set [1] turned out to be 82.0%.
Taken in the same sequence, the figures for `Oc1cc(O)cc(Oc2c(Oc3c(O)cc(O)cc3O)cc(O)c3c2Oc2c(O)cc(O)cc2O3)c1` [composition 9] were 82.7%, 114.3 µM, 57.2 µM, 72.1% and 84.3%.
In the case of `Oc1cc(O)cc(Oc2c(O)cc(O)c3c2Oc2c(O)cc(O)c(-c4c(O)cc(O)c5c4Oc4c(O)cc(O)c(Oc6cc(O)cc(O)c6)c4O5)c2O3)c1` [composition 5], the “Inhibition of Elastase (%)” value with elastase stood at 90.4%. Moreover, in data set [3], the “LD50 (μM) NHEK (F) cell” value was determined as 100.4 µM. The “% Inhibition on histamine release” value in data set [4] was 77.4%. Besides, in data set [1], the “Inhibitory effect … (%)” value is recorded as 83.5%.
On to `Oc1cc(O)cc(Oc2c(O)cc(O)c3c2Oc2c(O)cc(O)cc2O3)c1` [composition 1], for which the “Inhibition of Elastase (%)” value in the data set on elastase was 87.4%. Also, the “LD50 (μM) NB1RGB cell” value in data set [2] was determined as 110.4 µM. In addition, the “LD50 (μM) NHEK (F) cell” value in data set [3] was found to be 56.4 µM. The “% Inhibition on histamine release” value in data set [4] came to 60.4%. Further, in data set [1], the “Inhibitory effect … (%)” value was 84.3%.
Take catechin [reference compound]: in the data set on elastase, the “Inhibition of Elastase (%)” value was 50.4%. In data set [5], the “Relative TG concentration in the skin cell (%)” value came to 110.4% and the “Relative TG concentration in the skin surface (%)” value is on record as 108.2%. Also, the “Inhibitory effect … (%)” value in data set [1] was 50.4%.
Consider `O=c1c(-c2ccccc2)coc2ccccc12` [isoflavone, reference compound], for which the “Inhibition of Elastase (%)” value in the data set with elastase was 38.3%. In data set [1], the inhibition at 50 µg/mL was determined as 64.3%.
For the compound `Oc1cc(O)cc(Oc2c(O)cc(O)c3c2Oc2c(O)cc(O)c(-c4c(O)cc(O)c5c4Oc4c(O)cc(Oc6c(O)cc(O)cc6O)c(Oc6cc(O)cc(O)c6)c4O5)c2O3)c1` [composition 10], the “Inhibition of Elastase (%)” value in the data set on elastase is 88.1%. In addition, the “LD50 (μM) NHEK (F) cell” value in data set [3] was found to be 48.2 µM. The “% Inhibition on histamine release” value in data set [4] came out at 83.2%. In addition, in data set [1], the “Inhibitory effect … (%)” value is 92.1%.
Consider `Oc1cc(O)cc(Oc2cc(O)c3c(c2)Oc2c(O)cc(O)c(Oc4cc(O)cc(O)c4)c2O3)c1` [composition 8], for which the “Inhibition of Elastase (%)” value with elastase is listed as 87.7%. Also, the “LD50 (μM) NB1RGB cell” value in data set [2] amounted to 104.8 µM. In addition, the “LD50 (μM) NHEK (F) cell” value in data set [3] was 93.2 µM. Further, the “% Inhibition on histamine release” value in data set [4] was 62.9%. Also, the “Inhibitory effect … (%)” value in data set [1] turned out to be 87.6%.
`Oc1cc(O)cc(Oc2c(O)cc(O)c3c2Oc2c(O)cc4oc5c(Oc6cc(O)cc(O)c6)c(O)cc(O)c5c4c2O3)c1` [composition 4]: the “Inhibition of Elastase (%)” value in the data set with elastase is 85.4%. The “% Inhibition on histamine release” value in data set [4] stood at 80.3%. In addition, in data set [1], the “Inhibitory effect … (%)” value worked out at 82.3%.
Turning to `Oc1cc(O)cc(Oc2c(O)cc(O)c3c2Oc2c(O)cc4oc5cc(O)cc(O)c5c4c2O3)c1` [composition 7], the “Inhibition of Elastase (%)” value in the data set with elastase amounted to 88.7%. In addition, the “LD50 (μM) NB1RGB cell” value in data set [2] was determined as 100.4 µM. In addition, in data set [3], the “LD50 (μM) NHEK (F) cell” value amounted to 78.9 µM. Besides, in data set [4], the “% Inhibition on histamine release” value is reported as 70.8%. Also, the “Inhibitory effect … (%)” value in data set [1] is recorded as 80.5%.
Turning to `O=c1cc(CO)occ1O` [kojic acid, reference compound], the inhibition at 50 µg/mL in data set [1] worked out at 60.3%.
On the same count and under the same terms, with `O=C1O[C@H]([C@@H](O)CO)C(O)=C1O` [ascorbic acid, reference compound] the figure was 65.3%.
